# Test results taken from US12391672B2, “Solid forms comprising (S)-4-(4-(4-(((2-(2,6-dioxopiperidin-3-yl)-1-oxoisoindolin-4-yl)oxy)methyl)benzyl)piperazin-1-yl)-3-fluorobenzonitrile and salts thereof, and compositions comprising and methods of using the same” (Celgene Corporation, priority 2019, dated 2025).
# Where “and” joins values, the source holds several entries; their conditions need not be identical. Equal entries are not always repeated.
# What was measured:
# [1] = tested on: non-selective α1 adrenergic receptor; test: α1 adrenergic receptor binding at 10 μM ([3H]prazosin); conditions: 0.25 nM [3H]prazosin, rat cerebral cortex membranes
# Experimental: (§1) α1 Adrenergic and Dopamine D2 Receptors. Methods: Binding and functional assays for α1 adrenergic and dopamine D2 receptors were performed by Eurofins Cerep according to their methods.
# α1 Adrenergic Receptor. Binding at 10 μM. The binding assay evaluated the affinity of test article for the non-selective α1 adrenergic receptor in rat cerebral cortex. Membrane homogenates of cerebral cortex were incubated in duplicate for 60 minutes at room temperature with 0.25 nM [^3H]prazosin in the absence or presence of test articles at 10 μM. After the incubation period, samples were filtered through glass fiber filters, the filters dried and then counted for radioactivity using a scintillation counter. Results are expressed as mean percent inhibition of control radioligand binding.
# dopamine D2S receptor = molecular target: T1, dopamine D2S receptor (Homo sapiens, UniProt P14416); test: Dopamine D2S receptor binding at 10 μM; conditions: transfected HEK-293 cell membranes, read-out: Dopamine D2S % Inh. (@10 μM)
# T1 construct: host or cells: HEK-293
# Experimental: as §1
# Dopamine D2 Receptor. Binding at 10 μM. The binding assay evaluated the affinity of test articles for the dopamine D2 receptor in transfected human embryonic kidney (HEK)-293 cells. For determining the binding in the D2S receptor assay, test article was incubated with 0.3 nM [^3H] methylspiperone or 1 nM [^3H] 7-hydroxy-2-N,N-dipropylaminotetralin (7-OH-DPAT). [^3H] Methylspiperone at 0.3 nM also was used as control ligand in the D2L binding assay. Cell membrane homogenates were incubated in duplicate at room temperature for 60 minutes with ligand in the absence or presence of test articles at 10 μM. After the incubation period, samples were filtered through glass fiber filters, the filters dried and then counted for radioactivity using a scintillation counter. Results are expressed as mean percent inhibition of control radioligand binding.
# [2] = Thermal treatment / racemization on heating; type: physicochemical
# Experimental: Thermal treatment of solid forms: the following table summarizes two experiments carried out using solvent-free thermal treatment of forms of Compound 1. The goal of these experiments was to determine whether the endotherm at 225° C. observed in many DSC experiments corresponded to the melting of the racemate of Compound 1 or whether it was a polymorphic form of Compound 1. Two experiments involved generation of different solid forms of Compound 1, the amorphous form and Form E. The resulting products were subsequently heated to temperatures where exothermic events had been observed in DSC thermograms. Both experiments confirmed that the racemate was generated by heating.
# Racemization of Compound 1 during the DSC analysis was confirmed by heating the samples to various temperatures and analyzing these samples by a chiral HPLC method as well as by comparison of the melting point with a pure sample of the racemate of Compound 1. Upon heating the sample to 160° C., the chiral purity was essentially unchanged (96.1 area % at 160° C. vs. 97.1% initial). This supports the interpretation of the sharp endotherm seen in the DSC thermogram at about 152.6° C. as the melt of the enantiomer. Between 160-218° C. a gradual conversion of the enantiomer to the racemate occurs along with the recrystallization of the racemate. This explains the unsteady baseline over this temperature range and the small broad endotherm observed at about 197.1° C. […] This melting point matches the peak melting point (about 225.6° C.) of the pure racemate of Compound 1.
# [3] = Solubility of polymorphic forms in physiologically relevant media and final pH; type: physicochemical; conditions: listed as Form B
# Text: Solubility data of the several polymorphic forms of Compound 1 in physiologically relevant media and the final pH of these solutions are summarized in the following tables.
# [4] = Dynamic vapor sorption / hygroscopicity; type: physicochemical; conditions: listed as Form B
# Experimental: Projekt Messtechnik (now ProUmid) SPS11-100n. The sample was placed on an aluminum holder on top of a microbalance and allowed to equilibrate at 50% r.h. before starting one of the following pre-defined humidity programs (1 cycle): • hold 2 h at 50% r.h., • decrease humidity −5% r.h. h^−1 for 10 h (i.e., from 50% r.h. to 0% r.h.), • hold 5 h at […]., • increase humidity +5% r.h. h^−1 for 19 h (i.e., from 0% r.h. to 95% r.h.), • hold 5 h at 95% r.h., • decrease humidity −5% r.h. h^−1 for 9 h (i.e., from 95% r.h. to 50% r.h.), • hold 2 h at 50% r.h. or • hold 2 h at 50% r.h., • increase humidity +5% r.h. h^−1 for 9 h (i.e., from 50% r.h. to 95% r.h.), • hold 5 h at 95% r.h., • decrease humidity −5% r.h. h^−1 for 19 h (i.e., from 95% r.h. to 0% r.h.), • hold 5 h at 0% r.h., • increase humidity +5% r.h. h^−1 for 10 h (i.e., from 0% r.h. to 50% r.h.), • hold 2 h at 50% r.h.
# The hygroscopicity was classified based on the mass gain at 85% r.h. relative to the initial mass as follows: deliquescent (sufficient water adsorbed to form a liquid), very hygroscopic (mass increase of […]), hygroscopic (mass increase of <15% but ≥2%), slightly hygroscopic (mass increase of <2% but ≥0.2%), or non-hygroscopic (mass increase of <0.2%).
# [5] = Solid state stability under accelerated storage conditions; type: physicochemical; conditions: for Chiral purity after storage: initial value 97.96 area %; for area % chemical purity after storage: initially 98.4%
# Experimental: Form A was not isolated directly as a wet cake but formed only upon drying of Form E in polymorphism studies. […] Small quantities of Form A were generated by dissolving a crude Compound 1 in MEK at high temperature, followed by fast cooling to room temperature, filtration and drying. DSC and TGA data were obtained for samples of Form A and following storage for 1 week at 60° C. and 60° C./75% RH. […] TGA analysis confirmed that this broad endotherm was most likely due to moisture uptake under the accelerated storage conditions. Most of the weight loss of 0.82% in this sample occurred in a single step at less than 75° C. By contrast, weigh loss was a two-step process at the initial time point. […] The residual solvent initially present in the sample was lost upon storage of the sample at 60° C. (0.13% weight loss between 25 to 150° C.).
# Form B could be obtained from a process involving methyl acetate. […] HPLC traces were taken of the samples of Form B and following storage for 2 week at 60° C. and 60° C./75% RH. […] Several small degradation products were seen to grow especially in the sample stored at 60° C. Chiral instability was also observed in the sample stored at 60° C./75% RH.
# Physical stability: Visually, all samples of Form K were white colored powder with no apparent change in color in the samples stored under accelerated conditions (40° C., 40° C./75% RH, 60° C., 60° C./75% RH and sample stored in light chamber in clear vials exposed to light and covered in aluminum foil) for 14 d relative to the sample stored refrigerated and under ambient conditions.
# Solid state chemical stability: HPLC analysis were performed on Form K samples stored under the accelerated stability conditions. […] Based on the HPLC analysis data, there is a measurable but small change in the chemical stability of Form K under the accelerated conditions of temperature, humidity and exposure to light over the 14 d period.
# Solid state chiral stability: Chiral stability of Form K samples stored under accelerated stability conditions was tested. There was ˜2.9% of the R-enantiomer (97.1 area % of the active S-isomer) in the initial sample. […]
# The chiral purity (area % of S-isomer) remained […] under the accelerated stability conditions.
# [6] = Mechanical stressing (grinding, compression); type: physicochemical; conditions: ground with a mortar and pestle for 2 min; listed as Form B
# Experimental: Mechanical stressing experiment: the following table describes three experiments involving mechanical stressing of Form A and/or Form B of free base Compound 1 by grinding with a mortar and pestle.
# Shear Sensitivity: Form K was compressed under 2000 psi for 1 minute and analyzed by XRPD.
# [7] = Competitive slurry and slurry stability experiments; type: physicochemical; conditions: aqueous slurry at room temperature, within 24 hr
# Experimental: Form B was obtained at room temperature while form C was obtained at 45° C. in acetone alone.
# The HBr salt was largely insoluble in various buffers when 1 mg/mL slurries were prepared and the mother liquor concentration determined (by HPLC): <0.05 mg/mL in all buffers tested.
# T1 sequence (P14416 1-414 isoform P14416-2): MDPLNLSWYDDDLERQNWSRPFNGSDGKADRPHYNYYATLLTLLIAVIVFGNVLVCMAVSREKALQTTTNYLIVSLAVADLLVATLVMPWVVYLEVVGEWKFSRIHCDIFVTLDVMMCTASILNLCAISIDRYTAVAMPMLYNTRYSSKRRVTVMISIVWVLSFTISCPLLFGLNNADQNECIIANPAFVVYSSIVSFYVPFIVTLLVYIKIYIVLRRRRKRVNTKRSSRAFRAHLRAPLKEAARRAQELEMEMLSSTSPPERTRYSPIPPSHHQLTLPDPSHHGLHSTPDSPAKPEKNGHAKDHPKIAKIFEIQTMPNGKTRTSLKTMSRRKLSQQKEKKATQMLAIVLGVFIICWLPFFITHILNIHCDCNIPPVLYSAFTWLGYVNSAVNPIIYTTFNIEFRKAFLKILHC
compound,measurement,setting,value
"O=C1CCC(N2Cc3c(OCc4ccc(CN5CCN(c6ccc(F)cc6F)CC5)cc4)cccc3C2=O)C(=O)N1 (racemic) [Compound A, 3-(4-((4-((4-(2,4-difluorophenyl)piperazin-1-yl)methyl)benzyl)oxy)-1-oxoisoindolin-2-yl)piperidine-2,6-dione, reference compound]",Adrenergic α1 % Inh. (@10 μM),[1],102%
"N#Cc1ccc(N2CCN(Cc3ccc(COc4cccc5c4CN([C@H]4CCC(=O)NC4=O)C5=O)cc3)CC2)c(F)c1 [Compound 1, (S)-4-(4-(4-(((2-(2,6-dioxopiperidin-3-yl)-1-oxoisoindolin-4-yl)oxy)methyl)benzyl)piperazin-1-yl)-3-fluorobenzonitrile]",Adrenergic α1 % Inh. (@10 μM),[1],67% and 62%
same,inhibition at 10 µM,dopamine D2S receptor,55%
same,racemization on heating,"[2]; DSC heating, chiral HPLC, gradual between 160-218° C.",almost complete by 218 °C
same,chiral purity upon heating,"[2]; heated to 160° C., 97.1% initial",96.1 area %
N#Cc1ccc(N2CCN(Cc3ccc(COc4cccc5c4CN([C@H]4CCC(=O)NC4=O)C5=O)cc3)CC2)c(F)c1 [Form B of a free base of Compound 1],Solubility,[3]; FeSSiF,0.077 mg/mL
same,Solubility,[3]; SGF with pepsin,0.406 mg/mL
same,Solubility,[3]; pH 1 buffer HC1/NaC1,0.085 mg/mL
same,Solubility,[3]; pH 3 buffer (phosphate),0.125 mg/mL
same,Solubility,[3]; pH 4 buffer (acetate),0.115 mg/mL
same,Solubility,[3]; pH 5 buffer (acetate),0.007 mg/mL
same,Final pH,[3]; solubility sample in FaSSIF,6.43
same,Final pH,[3]; solubility sample in FeSSiF,5.03
same,Final pH,[3]; solubility sample in SGF with pepsin,1.29
same,Final pH,[3]; solubility sample in Water,6.46
same,Final pH,[3]; solubility sample in pH 1 buffer HC1/NaC1,1.09
same,Final pH,[3]; solubility sample in pH 3 buffer (phosphate),4.05
same,Final pH,[3]; solubility sample in pH 4 buffer (acetate),4.11
same,Final pH,[3]; solubility sample in pH 5 buffer (acetate),5.05
same,hygroscopicity,"[4]; DVS, class by mass gain at 85% r.h.",slightly hygroscopic (slightly hygroscopic (mass increase of <2% but ≥0.2%))
same,DVS mass increase,[4]; relative humidity from about 5% to about 95%,about 3.1%
same,Chiral purity after storage,[5]; 2 week at 60° C./75% RH,96.54 area %
same,area % chemical purity after storage,[5]; 2 week at 60° C./75% RH,97.92%
same,Chiral purity after storage,[5]; 2 week at 60° C.,remained unchanged
same,area % chemical purity after storage,[5]; 2 week at 60° C.,97.71%
same,colour after storage,"[5]; stored at 60° C., initially white to light brown",Color change was observed
same,PXRD result after mechanical treatment,[6],no change in polymorphic form
same,competitive slurry with Form C,[7],rapidly converted to Form C
